Values belong to the molecule of their own block, whether it stands above or below them. *1 amine or outer side, *2 acyl side, *3 side chain or, on linkers, in order; H or OH if unused. Where a SMILES comes first, the peptide text is derived from it. Bridges are numbered along the chain shown (N, C = ends). [ ]: non-standard residue; d: D form. The star is where a group is joined. ξ: configuration not given here. X1 = O=C(O)CCNC(=S)NCCCC[C@H](N[*:1])C(=O)[*:2]; Succinyl(3ξ-Ph) = O=C(O)C(CC(=O)*)c1ccccc1; Heptanedioyl = O=C(CCCCCC(=O)[*:2])[*:1]; Bz = O=C(c1ccccc1)*
Tests used:
[1] = molecular target: T1, NAD-dependent protein deacylase sirtuin-5, mitochondrial (Homo sapiens, UniProt Q9NXA8); test: Inhibition of SIRT5 desuccinylase activity (unknown origin) using succinyl-lysine as substrate
T1 sequence (Q9NXA8 whole entry): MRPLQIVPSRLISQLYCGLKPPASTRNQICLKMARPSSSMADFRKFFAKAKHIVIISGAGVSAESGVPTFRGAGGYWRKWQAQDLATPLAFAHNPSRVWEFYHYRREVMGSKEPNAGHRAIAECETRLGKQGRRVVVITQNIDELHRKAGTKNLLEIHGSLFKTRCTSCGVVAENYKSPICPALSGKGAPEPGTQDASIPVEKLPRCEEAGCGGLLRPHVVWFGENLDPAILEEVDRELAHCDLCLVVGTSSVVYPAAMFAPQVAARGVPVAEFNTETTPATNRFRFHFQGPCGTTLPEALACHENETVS

[2] = molecular target: T1, NAD-dependent protein deacylase sirtuin-5, mitochondrial; test: Inhibition of SIRT5 deglutarylase activity (unknown origin)
[3] = molecular target: T1, NAD-dependent protein deacylase sirtuin-5, mitochondrial; test: Inhibition of human recombinant SIRT5 using fluorogenic Benzyl-Lys(Succinyl)-AMC as substrate incubated for 2 hrs measured by fluoroscence based microplate reader method
[4] = molecular target: T1, NAD-dependent protein deacylase sirtuin-5, mitochondrial; test: Binding affinity to SIRT5 (unknown origin) assessed as desuccinylation activity by measuring dissociation constant
[5] = molecular target: T1, NAD-dependent protein deacylase sirtuin-5, mitochondrial; test: Binding affinity to SIRT5 (unknown origin) assessed as desuccinylation activity by measuring inhibition constant
[6] = molecular target: T2, NAD-dependent protein deacetylase sirtuin-1 (Homo sapiens, UniProt Q96EB6); test: Inhibition of His6-tagged SIRT1 (unknown origin) desuccinylase activity incubated for 10 mins by HPLC based assay
T2 sequence (Q96EB6 whole entry): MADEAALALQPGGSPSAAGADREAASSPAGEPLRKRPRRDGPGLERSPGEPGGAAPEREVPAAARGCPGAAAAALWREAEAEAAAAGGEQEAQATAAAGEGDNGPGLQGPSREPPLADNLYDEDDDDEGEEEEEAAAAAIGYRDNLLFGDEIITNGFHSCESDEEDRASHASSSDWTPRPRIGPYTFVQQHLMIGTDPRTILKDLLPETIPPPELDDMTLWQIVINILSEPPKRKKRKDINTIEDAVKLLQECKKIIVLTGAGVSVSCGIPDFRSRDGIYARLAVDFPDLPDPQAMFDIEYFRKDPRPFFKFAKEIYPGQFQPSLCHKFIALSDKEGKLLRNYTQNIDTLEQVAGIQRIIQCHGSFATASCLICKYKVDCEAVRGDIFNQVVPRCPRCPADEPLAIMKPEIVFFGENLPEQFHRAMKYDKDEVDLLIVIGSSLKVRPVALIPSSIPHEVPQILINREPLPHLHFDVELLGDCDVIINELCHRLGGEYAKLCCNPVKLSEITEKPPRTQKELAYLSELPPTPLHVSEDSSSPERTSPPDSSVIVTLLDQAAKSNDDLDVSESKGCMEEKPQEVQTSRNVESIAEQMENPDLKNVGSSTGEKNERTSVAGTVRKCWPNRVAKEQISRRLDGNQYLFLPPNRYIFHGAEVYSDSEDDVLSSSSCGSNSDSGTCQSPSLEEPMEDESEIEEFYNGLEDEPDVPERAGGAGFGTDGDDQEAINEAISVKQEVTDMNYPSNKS

[7] = molecular target: T3, NAD-dependent protein deacetylase sirtuin-2 (Homo sapiens, UniProt Q8IXJ6); test: Inhibition of His6-tagged SIRT2 (unknown origin) desuccinylase activity incubated for 12 mins by HPLC based assay
T3 sequence (Q8IXJ6 whole entry): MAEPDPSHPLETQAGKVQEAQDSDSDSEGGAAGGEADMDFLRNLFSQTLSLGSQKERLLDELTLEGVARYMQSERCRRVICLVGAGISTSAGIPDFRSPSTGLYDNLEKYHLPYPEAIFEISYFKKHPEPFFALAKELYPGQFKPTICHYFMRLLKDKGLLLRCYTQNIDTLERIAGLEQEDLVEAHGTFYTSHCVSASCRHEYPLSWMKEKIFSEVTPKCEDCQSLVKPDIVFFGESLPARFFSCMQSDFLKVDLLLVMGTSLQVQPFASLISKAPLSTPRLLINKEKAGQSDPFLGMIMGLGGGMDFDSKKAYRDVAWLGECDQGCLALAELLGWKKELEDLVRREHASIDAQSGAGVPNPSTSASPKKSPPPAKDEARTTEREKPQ

[8] = molecular target: T4, NAD-dependent protein deacetylase sirtuin-3, mitochondrial (Homo sapiens, UniProt Q9NTG7); test: Inhibition of His6-tagged SIRT3 (unknown origin) desuccinylase activity incubated for 10 mins by HPLC based assay
T4 sequence (Q9NTG7 whole entry): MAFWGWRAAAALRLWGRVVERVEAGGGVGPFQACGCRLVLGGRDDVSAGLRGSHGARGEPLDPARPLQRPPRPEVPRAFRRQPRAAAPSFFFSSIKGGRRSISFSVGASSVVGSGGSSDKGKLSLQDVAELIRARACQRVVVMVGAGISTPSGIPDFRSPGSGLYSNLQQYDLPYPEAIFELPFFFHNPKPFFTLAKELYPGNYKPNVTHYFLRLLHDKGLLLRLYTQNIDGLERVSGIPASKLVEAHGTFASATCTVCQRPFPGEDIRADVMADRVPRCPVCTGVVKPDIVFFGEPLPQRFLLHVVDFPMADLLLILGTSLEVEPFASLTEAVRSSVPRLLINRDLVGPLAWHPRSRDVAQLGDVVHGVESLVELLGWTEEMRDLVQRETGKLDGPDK

[9] = molecular target: NAD-dependent protein deacylase sirtuin-6 (Homo sapiens, UniProt Q8N6T7); test: Inhibition of His6-tagged SIRT6 (unknown origin) desuccinylase activity incubated for 12 mins by HPLC based assay
Sequence of NAD-dependent protein deacylase sirtuin-6 (Q8N6T7 whole entry): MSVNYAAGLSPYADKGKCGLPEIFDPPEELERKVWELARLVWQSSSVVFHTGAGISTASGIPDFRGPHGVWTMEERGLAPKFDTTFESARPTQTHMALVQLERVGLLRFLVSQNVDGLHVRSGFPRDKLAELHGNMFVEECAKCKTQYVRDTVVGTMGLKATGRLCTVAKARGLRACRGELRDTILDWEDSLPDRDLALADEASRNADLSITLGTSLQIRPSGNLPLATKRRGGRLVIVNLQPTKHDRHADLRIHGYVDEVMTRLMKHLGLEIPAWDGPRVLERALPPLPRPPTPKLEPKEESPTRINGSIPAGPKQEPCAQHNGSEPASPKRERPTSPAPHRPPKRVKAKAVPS

[10] = molecular target: T1, NAD-dependent protein deacylase sirtuin-5, mitochondrial; test: Inhibition of GST-tagged SIRT5 desuccinylase activity (unknown origin) incubated for 5 mins by HPLC based assay
[11] = molecular target: T1, NAD-dependent protein deacylase sirtuin-5, mitochondrial; test: Binding affinity to SIRT5 (unknown origin) assessed as deglutarylase activity by measuring inhibition constant
[12] = molecular target: T5, NAD-dependent protein deacetylase sirtuin-1 (Homo sapiens) (UniProt Q96EB6); test: Inhibition of SIRT1 (unknown origin) at 10 uM relative to control
T5 sequence (whole entry): T2 sequence (Q96EB6 whole entry)

[13] = molecular target: T6, NAD-dependent protein deacetylase sirtuin-3, mitochondrial (Homo sapiens) (UniProt Q9NTG7); test: Inhibition of SIRT3 (unknown origin) at 10 uM relative to control
T6 sequence (whole entry): T4 sequence (Q9NTG7 whole entry)

OCI-AML2 = test: Induction of apoptosis in human OCI-AML2 cells at 10 uM relative to control; type: functional
SKM-1 = test: Induction of apoptosis in human SKM-1 cells at 5 uM relative to control; type: functional
[14] = molecular target: T1, NAD-dependent protein deacylase sirtuin-5, mitochondrial; test: Inhibition of SIRT5 activity (unknown origin)

SMILES: N=C(N)NCCC[C@@H]1NC(=O)CCCCCCC(=O)NCCCC[C@@H](C(N)=O)NC(=O)[C@H](CCCCNC(=S)NCCC(=O)O)NC1=O
IC50 [1]: 2.2 µM

SMILES: N#C/C(=C\c1ccc(-c2ccc(C(=O)O)cc2)o1)C(=O)Nc1ccc(Cl)c(C(F)(F)F)c1
IC50 [3]: 16.4 µM

SMILES: CC(C)C[C@H](NC(=O)[C@@H](NC(=O)CNC(=O)c1ccccc1)C(C)C)C(=O)N[C@@H](CCCCNC(=O)CC(C(=O)O)c1ccccc1)C(=O)N[C@@H](CCC(=O)O)C(=O)N[C@@H](Cc1ccc(O)cc1)C(=O)NCC(=O)N[C@H](C(N)=O)C(C)C (some centres not stated) (Bz-GVLK(Succinyl(3ξ-Ph))EYGV-NH2)
Kd [4]: 8.2 µM
Ki [5]: 100 µM

SMILES: CC(=O)N[C@H]1CCCCNC(=O)CCCCCC(=O)NCCCC[C@@H](C(=O)N[C@H](C(N)=O)[C@@H](C)O)NC(=O)[C@H](CCCCNC(=S)NCCC(=O)O)NC(=O)[C@H](CCCNC(=N)N)NC1=O (Ac-KR[X1]KT-NH2; linker 1-4 via Heptanedioyl)
IC50 [6]: > 1000 µM
IC50 [7]: > 1000 µM
IC50 [8]: > 1000 µM
IC50 [9]: > 1000 µM
IC50 [10]: 7.5 µM

SMILES: Cc1cc(C)cc(NC(=O)/C(C#N)=C/c2ccc(-c3ccc(C(=O)O)cc3)o2)c1
IC50 [3]: 37.9 µM

SMILES: CC(C)NC(=O)[C@H](Cc1c[nH]c2ccccc12)NC(=O)[C@H](CCCCNC(=S)NCCC(=O)O)NC(=O)OCc1ccccc1
Activity (OCI-AML2): >80%
Activity (SKM-1): >80%

Continued, values first:

IC50 [2]: 0.23 µM
SMILES: O=C(O)CCNC(=S)NCCCC[C@H](NS(=O)(=O)c1cccc(F)c1)C(=O)N[C@@H](Cc1c[nH]c2ccccc12)C(=O)NC1CCCC1

IC50 [1]: 6.5 µM
SMILES: N=C(N)NCCC[C@@H]1NC(=O)CCCCC(=O)NCCCC[C@@H](C(N)=O)NC(=O)[C@H](CCCCNC(=S)NCCC(=O)O)NC1=O

IC50 [2]: ≤ 0.05 µM
Ki [11]: 0.0005 µM
SMILES: O=C(NC1CCC1)[C@H](Cc1c[nH]c2ccccc12)NC(=O)[C@H](CCCCNC(=S)NCCc1nnn[nH]1)NS(=O)(=O)c1cccc(F)c1

IC50 [1]: 4 µM
SMILES: N=C(N)NCCC[C@@H]1NC(=O)CCC(=O)NCCCC[C@@H](C(N)=O)NC(=O)[C@H](CCCCNC(=S)NCCC(=O)O)NC1=O

IC50 [2]: ≤ 0.05 µM
inhibition [12]: 37%
SMILES: O=C(NC1CCC1)[C@H](Cc1c[nH]c2ccccc12)NC(=O)[C@H](CCCCNC(=S)NCCc1noc(=O)[nH]1)NS(=O)(=O)c1cccc(F)c1

IC50 [2]: 0.29 µM
inhibition [13]: 40%
SMILES: O=C(NC1CCC1)[C@H](Cc1c[nH]c2ccccc12)NC(=O)[C@H](CCCCNC(=S)NCCc1cc(O)on1)NS(=O)(=O)c1cccc(F)c1

IC50 [14]: 5.1 µM
SMILES: O=C(NC1CCC1)[C@H](Cc1c[nH]c2ccccc12)NC(=O)[C@H](CCCCNC(=S)NCc1nnn[nH]1)NS(=O)(=O)c1cccc(F)c1
